Tests used:
[1] = tested on: Megoura viciae (vetch aphid); conditions: in vivo
Experimental: The tests with Megoura viciae were carried out on potted field bean plants (Vicia faba, variety "Saxa") under laboratory conditions. The test animals were transferred to the test plants only after the plants had been treated and the spray coating had dried on. The tests were as a rule evaluated 5 days after the start of the test, calculated from the time at which the test animals were introduced.

[2] = format: physicochemical
Source text: (e) Thin layer chromatography: Three ninhydrin-positive spots, of which, in each case, only one spot corresponds to the substances which is active in the bioautogram, are found in all the solvent systems used which contain acetic acid. This fact could be ascribed to the lability of the antibiotic in acetic acid solution. In neutral solvent systems, only one ninhydrin-positive spot is found in each case.

## Nikkomycin
[1]
  mortality of the larvae which had developed normally during the ecdysis stages: more than 90%
[2]
  stability in acetic acid solution: lability
